Measured values from PubChem BioAssay AID330 (DTP/NCI, 2004).
Where “and” joins values, the source holds several entries; their conditions need not be identical. Equal values may be shown once. Inconclusive results and toxic doses are left out. The calls were made as follows: active = survival T/C of 150% or more; inactive = T/C below 125% in these data.

System: P388 leukemia ip, CD2F1 mice, survival T/C
Experiment: NCI In Vivo Anticancer Drug Screen. Data for tumor model P388 Leukemia (intraperitoneal) in CD2F1 (CDF1) mice
Details: endpoint: median survival time, higher = longer survival
How it was run: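 Mice carrying the transplanted tumor received test compound or vehicle. Survival was recorded in each group, and the value is the treated-group measurement divided by that of the vehicle-treated control group.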

[1] = dose: 12.5 mg/kg/injection, schedule: Q01DX005 (ip), vehicle: saline with Tween-80
[2] = dose: 25.0 mg/kg/injection, schedule: Q01DX005 (ip), vehicle: saline with Tween-80
[3] = dose: 50.0 mg/kg/injection, schedule: Q01DX005 (ip), vehicle: saline with Tween-80
[4] = dose: 100.0 mg/kg/injection, schedule: Q01DX005 (ip), vehicle: saline with Tween-80

Measured: T/C

N#Cc1c(N)nsc1N1CCOCC1
inactive: [1] 98 % of control | [2] 104 % of control | [3] 98 % of control

COc1ccc2c(c1)O[C@H]1c3ccc(O)cc3OC[C@@H]21
inactive: [3] 100 % of control | [4] 91 % of control | dose: 200.0 mg/kg/injection, schedule: Q01DX005 (ip), vehicle: saline with Tween-80 91 % of control

CC(C)(C)c1cc(C(c2ccccc2)(c2ccccc2)c2ccccc2)cc2c1[O][Sb]([c]1ccccc1)([c]1ccccc1)([c]1ccccc1)[NH]2
inactive: dose: 50.0 mg/kg/injection, schedule: Q01DX009 (ip), vehicle: Klucel (hydroxypropylcellulose) (HPC) 102 % of control | dose: 100.0 mg/kg/injection, schedule: Q01DX009 (ip), vehicle: Klucel (hydroxypropylcellulose) (HPC) 103 % of control | dose: 200.0 mg/kg/injection, schedule: Q01DX009 (ip), vehicle: Klucel (hydroxypropylcellulose) (HPC) 116 % of control

Nc1cccc2c1-c1ccccc1C2=O
inactive: dose: 6.25 mg/kg/injection, schedule: Q01DX005 (ip), vehicle: saline with Tween-80 98 % of control | [1] 98 % of control | [2] 92 % of control | [4] 92 % of control

N#Cc1cc2ccccc2nc1SN
inactive: dose: 50.0 mg/kg/injection, schedule: Q01DX005 (ip), vehicle: saline 100 % of control | dose: 100.0 mg/kg/injection, schedule: Q01DX005 (ip), vehicle: saline 99 % of control | dose: 200.0 mg/kg/injection, schedule: Q01DX005 (ip), vehicle: saline 98 % of control

C=C(C)C1CC(=O)C2(C)C(C1)OC(=O)C2C(=O)OCC (stereo unspecified)
inactive: dose: 100.0 mg/kg/injection, schedule: Q04DX002 (ip), vehicle: Klucel (hydroxypropylcellulose) (HPC) 101 % of control | dose: 200.0 mg/kg/injection, schedule: Q04DX002 (ip), vehicle: Klucel (hydroxypropylcellulose) (HPC) 103 % of control and 106 % of control | dose: 400.0 mg/kg/injection, schedule: Q04DX002 (ip), vehicle: Klucel (hydroxypropylcellulose) (HPC) 103 % of control and 104 % of control

CC(=O)C1=CC(C)(C)OC1=O
inactive: dose: 100.0 mg/kg/injection, schedule: Q04DX002 (ip), vehicle: saline with Tween-80 103 % of control | dose: 200.0 mg/kg/injection, schedule: Q04DX002 (ip), vehicle: saline with Tween-80 109 % of control
